The results in this text go back to US10251892B2, “Bicyclic heterocycles as FGFR4 inhibitors” (Incyte Corporation, priority 2015, dated 2019).

The target in one assay is FGFR4 (Homo sapiens (Human), UniProt P22455). The assay is described as follows: FGFR Enzymatic Assay (peptide phosphorylation, FRET), FGFR4. In kind it is biochemical. As to the method:
(§1) The inhibitor potency of the exemplified compounds was measured in an enzyme assay that measures peptide phosphorylation using FRET measurements to detect product formation. Inhibitors were serially diluted in DMSO and a volume of 0.5 μL was transferred to the wells of a 384-well plate.
The enzymes were purchased from Millipore or Invitrogen.
(§2) GraphPad prism3 was used to analyze the data.

For a further assay, the target named is FGFR3 enzyme (Homo sapiens (Human), UniProt P22607). The assay is described as follows: FGFR Enzymatic Assay (peptide phosphorylation, FRET), FGFR3. In kind it is biochemical. As to conditions: IC50 ratio showing FGFR3 selectivity; pre-incubated for 4 hours. The protocol: as §1, §2
Sequence of FGFR3 enzyme (P22607 23-806): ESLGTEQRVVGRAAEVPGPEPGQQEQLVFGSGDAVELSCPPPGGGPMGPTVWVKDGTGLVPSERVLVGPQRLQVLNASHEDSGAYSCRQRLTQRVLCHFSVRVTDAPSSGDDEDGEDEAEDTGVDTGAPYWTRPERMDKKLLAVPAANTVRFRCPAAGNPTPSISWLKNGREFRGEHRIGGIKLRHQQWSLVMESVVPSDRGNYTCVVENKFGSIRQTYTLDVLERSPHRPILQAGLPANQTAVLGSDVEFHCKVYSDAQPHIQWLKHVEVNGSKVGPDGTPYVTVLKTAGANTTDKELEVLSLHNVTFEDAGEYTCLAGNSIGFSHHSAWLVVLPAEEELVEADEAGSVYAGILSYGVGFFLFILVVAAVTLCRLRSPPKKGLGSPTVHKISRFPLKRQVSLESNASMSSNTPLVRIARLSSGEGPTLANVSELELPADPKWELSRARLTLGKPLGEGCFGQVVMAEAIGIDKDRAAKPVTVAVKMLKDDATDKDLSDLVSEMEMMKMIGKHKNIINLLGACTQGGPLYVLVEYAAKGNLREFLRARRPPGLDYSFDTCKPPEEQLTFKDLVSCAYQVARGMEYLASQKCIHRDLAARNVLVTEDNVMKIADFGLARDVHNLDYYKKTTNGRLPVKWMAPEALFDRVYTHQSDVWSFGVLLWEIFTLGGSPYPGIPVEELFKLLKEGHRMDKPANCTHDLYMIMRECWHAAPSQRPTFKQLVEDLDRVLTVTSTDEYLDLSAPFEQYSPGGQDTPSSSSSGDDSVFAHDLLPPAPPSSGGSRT
Where [1] appears, read: IC50 ratio showing FGFR4 selectivity, pre-incubated for 4 hours.
The mark [2] stands for this setting: ratio of IC50 data showing FGFR4 selectivity, pre-incubated for 5 to 10 minutes.

Sequence of FGFR4 (P22455 22-802): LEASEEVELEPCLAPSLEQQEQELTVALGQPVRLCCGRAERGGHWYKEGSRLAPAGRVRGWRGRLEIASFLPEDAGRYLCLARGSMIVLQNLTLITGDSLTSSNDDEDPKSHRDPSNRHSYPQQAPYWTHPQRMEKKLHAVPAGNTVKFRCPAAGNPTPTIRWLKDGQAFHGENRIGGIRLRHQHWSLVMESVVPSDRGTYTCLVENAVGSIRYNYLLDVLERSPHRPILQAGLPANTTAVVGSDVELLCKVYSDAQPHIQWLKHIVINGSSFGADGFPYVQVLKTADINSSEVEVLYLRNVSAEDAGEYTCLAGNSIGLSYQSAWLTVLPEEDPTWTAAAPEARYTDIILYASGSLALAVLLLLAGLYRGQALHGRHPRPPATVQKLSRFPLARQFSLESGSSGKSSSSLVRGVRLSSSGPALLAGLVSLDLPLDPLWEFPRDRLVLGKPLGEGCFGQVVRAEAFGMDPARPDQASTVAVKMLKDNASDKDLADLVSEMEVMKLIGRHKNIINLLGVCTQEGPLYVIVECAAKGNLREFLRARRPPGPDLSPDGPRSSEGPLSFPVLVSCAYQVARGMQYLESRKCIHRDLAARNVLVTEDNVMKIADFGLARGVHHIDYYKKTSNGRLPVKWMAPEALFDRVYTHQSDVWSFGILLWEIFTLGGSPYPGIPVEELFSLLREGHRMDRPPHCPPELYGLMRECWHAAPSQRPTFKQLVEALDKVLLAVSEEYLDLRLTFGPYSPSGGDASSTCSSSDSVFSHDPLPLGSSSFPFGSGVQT

In the case of `COc1cc(OC)c(F)c(N2Cc3cnc(-c4cncc(Cl)c4)cc3C3(CC3)C2=O)c1F` [Example 11, 6′-(5-chloropyridin-3-yl)-2′-(2,6-difluoro-3,5-dimethoxyphenyl)-1′H-spiro[cyclopropane-1,4′-[2,7]naphthyridin]-3′(2′H)-one], at FGFR4 (setting [1]), the FGFR1/FGFR4 is given as greater than 25, the FGFR2/FGFR4 is greater than 25 and the FGFR3/FGFR4 is recorded as greater than 10. In addition, on FGFR4 (setting [2]), the FGFR1/FGFR4 is greater than 50, the FGFR2/FGFR4 is greater than 20 and the FGFR3/FGFR4 is greater than 25. For the same molecule, the FGFR1/FGFR3 at FGFR3 enzyme was greater than 1.

`COc1cc(OC)c(F)c(N2Cc3cnc(-c4cncc(S(=O)(=O)N5CCOCC5)c4)cc3C3(CC3)C2=O)c1F` [Example 14, 2′-(2,6-difluoro-3,5-dimethoxyphenyl)-6′-(5-(morpholinosulfonyl)pyridin-3-yl)-1′H-spiro[cyclopropane-1,4′-[2,7]naphthyridin]-3′(2′H)-one]: on FGFR4 (setting [1]), the FGFR1/FGFR4 is greater than 50, the FGFR2/FGFR4 is reported as greater than 10 and the FGFR3/FGFR4 is recorded as greater than 1. Further, on FGFR4 (setting [2]), the FGFR1/FGFR4 was greater than 25, the FGFR2/FGFR4 is on record as greater than 5 and the FGFR3/FGFR4 is reported as greater than 5. Also, at FGFR3 enzyme, the FGFR1/FGFR3 was greater than 5.

Take `COc1cc(OC)c(F)c(N2Cc3cnc(-c4cncc(N)c4)cc3C3(CC3)C2=O)c1F` [Example 4, 6′-(5-aminopyridin-3-yl)-2′-(2,6-difluoro-3,5-dimethoxyphenyl)-1′H-spiro[cyclopropane-1,4′-[2,7]naphthyridin]-3′(2′H)-one]: on FGFR4 (setting [1]), the FGFR1/FGFR4 is reported as greater than 25, the FGFR2/FGFR4 is recorded as greater than 10 and the FGFR3/FGFR4 is on record as greater than 10. For the same molecule, on FGFR4 (setting [2]), the FGFR1/FGFR4 is given as greater than 10, the FGFR2/FGFR4 is on record as greater than 10 and the FGFR3/FGFR4 is greater than 5. Further, the FGFR1/FGFR3 at FGFR3 enzyme is listed as greater than 1.

In the case of `COc1cncc(-c2cc3c(cn2)CN(c2c(F)c(OC)cc(OC)c2F)C(=O)C32CC2)c1` [Example 10, 2′-(2,6-difluoro-3,5-dimethoxyphenyl)-6′-(5-methoxypyridin-3-yl)-1′H-spiro[cyclopropane-1,4′-[2,7]naphthyridin]-3′(2′H)-one], at FGFR4 (setting [1]), the FGFR1/FGFR4 was greater than 25, the FGFR2/FGFR4 is recorded as greater than 25 and the FGFR3/FGFR4 is greater than 10. Besides, on FGFR4 (setting [2]), the FGFR1/FGFR4 was greater than 25, the FGFR2/FGFR4 was greater than 10 and the FGFR3/FGFR4 was greater than 10. In addition, the FGFR1/FGFR3 on FGFR3 enzyme is listed as greater than 1.

Regarding `COc1cc(OC)c(F)c(N2Cc3cnc(-c4cccnc4)cc3C3(CC3)C2=O)c1F` [Example 9, 2′-(2,6-difluoro-3,5-dimethoxyphenyl)-6′-(pyridin-3-yl)-1′H-spiro[cyclopropane-1,4′-[2,7]naphthyridin]-3′(2′H)-one], on FGFR4 (setting [1]), the FGFR1/FGFR4 is on record as greater than 10, the FGFR2/FGFR4 is greater than 1 and the FGFR3/FGFR4 is reported as greater than 1. In addition, at FGFR4 (setting [2]), the FGFR1/FGFR4 is greater than 5, the FGFR2/FGFR4 is greater than 1 and the FGFR3/FGFR4 is listed as greater than 1. Moreover, at FGFR3 enzyme, the FGFR1/FGFR3 is given as greater than 3.

`COc1cc(OC)c(F)c(N2Cc3cnc(-c4cncc(N5CCOCC5)c4)cc3C3(CC3)C2=O)c1F` [Example 6, 2′-(2,6-difluoro-3,5-dimethoxyphenyl)-6′-(5-morpholinopyridin-3-yl)-1′H-spiro[cyclopropane-1,4′-[2,7]naphthyridin]-3′(2′H)-one]: on FGFR4 (setting [1]), the FGFR1/FGFR4 is given as greater than 100, the FGFR2/FGFR4 is reported as greater than 100 and the FGFR3/FGFR4 was greater than 25. Moreover, at FGFR4 (setting [2]), the FGFR1/FGFR4 is reported as greater than 100, the FGFR2/FGFR4 is greater than 100 and the FGFR3/FGFR4 is listed as greater than 50. Further, on FGFR3 enzyme, the FGFR1/FGFR3 is listed as greater than 3.

Consider `COc1cc(OC)c(F)c(N2Cc3cnc(-c4cncc(C(=O)N5CCOCC5)c4)cc3C3(CC3)C2=O)c1F` [Example 13, 2′-(2,6-difluoro-3,5-dimethoxyphenyl)-6′-(5-(morpholine-4-carbonyl)pyridin-3-yl)-1′H-spiro[cyclopropane-1,4′-[2,7]naphthyridin]-3′(2′H)-one], for which, on FGFR4 (setting [1]), the FGFR1/FGFR4 was greater than 50, the FGFR2/FGFR4 was greater than 25 and the FGFR3/FGFR4 was greater than 10. Further, on FGFR4 (setting [2]), the FGFR1/FGFR4 is reported as greater than 50, the FGFR2/FGFR4 is recorded as greater than 20 and the FGFR3/FGFR4 is greater than 10. Also, the FGFR1/FGFR3 on FGFR3 enzyme is given as greater than 3.

Turning to `COc1cc(OC)c(F)c(N2Cc3cnc(-c4cc(N)cnc4C)cc3C3(CC3)C2=O)c1F` [Example 7, 6′-(5-amino-2-methylpyridin-3-yl)-2′-(2,6-difluoro-3,5-dimethoxyphenyl)-1′H-spiro[cyclopropane-1,4′-[2,7]naphthyridin]-3′(2′H)-one], at FGFR4 (setting [1]), the FGFR1/FGFR4 was greater than 50, the FGFR2/FGFR4 is listed as greater than 25 and the FGFR3/FGFR4 is greater than 25. In addition, at FGFR4 (setting [2]), the FGFR1/FGFR4 is given as greater than 25, the FGFR2/FGFR4 was greater than 10 and the FGFR3/FGFR4 was greater than 10. Moreover, on FGFR3 enzyme, the FGFR1/FGFR3 was greater than 1.

Regarding `COc1cc(OC)c(F)c(N2Cc3cnc(-c4cncc(CN5CCOCC5)c4)cc3C3(CC3)C2=O)c1F` [Example 16, 2′-(2,6-difluoro-3,5-dimethoxyphenyl)-6′-(5-(morpholinomethyl)pyridin-3-yl)-1′H-spiro[cyclopropane-1,4′-[2,7]naphthyridin]-3′(2′H)-one], on FGFR4 (setting [1]), the FGFR1/FGFR4 is recorded as greater than 50, the FGFR2/FGFR4 was greater than 25 and the FGFR3/FGFR4 was greater than 10. At FGFR4 (setting [2]), the FGFR1/FGFR4 is greater than 25, the FGFR2/FGFR4 is listed as greater than 10 and the FGFR3/FGFR4 is greater than 10. Moreover, on FGFR3 enzyme, the FGFR1/FGFR3 was greater than 1.

Consider `COc1cc(OC)c(F)c(N2Cc3cnc(-c4cncc(-n5ccnc5)c4)cc3C3(CC3)C2=O)c1F` [Example 12, 6′-(5-(1H-imidazol-1-yl)pyridin-3-yl)-2′-(2,6-difluoro-3,5-dimethoxyphenyl)-1′H-spiro[cyclopropane-1,4′-[2,7]naphthyridin]-3′(2′H)-one], for which, at FGFR4 (setting [1]), the FGFR1/FGFR4 was greater than 50, the FGFR2/FGFR4 is on record as greater than 25 and the FGFR3/FGFR4 was greater than 10. Further, on FGFR4 (setting [2]), the FGFR1/FGFR4 is reported as greater than 50, the FGFR2/FGFR4 is greater than 25 and the FGFR3/FGFR4 is greater than 20. On FGFR3 enzyme, the FGFR1/FGFR3 is reported as greater than 3.

On to `COc1cc(OC)c(F)c(N2Cc3cnc(-c4cncc(F)c4)cc3C3(CC3)C2=O)c1F` [Example 5, 2′-(2,6-difluoro-3,5-dimethoxyphenyl)-6′-(5-fluoropyridin-3-yl)-1′H-spiro[cyclopropane-1,4′-[2,7]naphthyridin]-3′(2′H)-one], for which, at FGFR4 (setting [1]), the FGFR1/FGFR4 is greater than 10, the FGFR2/FGFR4 is given as greater than 5 and the FGFR3/FGFR4 is reported as greater than 1. Also, at FGFR4 (setting [2]), the FGFR1/FGFR4 is given as greater than 10, the FGFR2/FGFR4 was greater than 5 and the FGFR3/FGFR4 is listed as greater than 4. Further, the FGFR1/FGFR3 at FGFR3 enzyme was greater than 3.

On to `COc1cc(OC)c(F)c(N2Cc3cnc(-c4nn(CC#N)cc4C#N)cc3C3(CC3)C2=O)c1F` [Example 174, 1-(cyanomethyl)-3-(2′-(2,6-difluoro-3,5-dimethoxyphenyl)-3′-oxo-2′,3′-dihydro-1′H-spiro[cyclopropane-1,4′-[2,7]naphthyridine]-6′-yl)-1H-pyrazole-4-carbonitrile], for which, on FGFR4 (setting [1]), the FGFR1/FGFR4 is greater than 100, the FGFR2/FGFR4 is listed as greater than 10 and the FGFR3/FGFR4 was greater than 25.

Take `COc1cc(OC)c(F)c(N2Cc3cnc(-c4nn(C)cc4C#N)cc3C3(CC3)C2=O)c1F` [Example 172, 3-(2′-(2,6-difluoro-3,5-dimethoxyphenyl)-3′-oxo-2′,3′-dihydro-1′H-spiro[cyclopropane-1,4′-[2,7]naphthyridine]-6′-yl)-1-methyl-1H-pyrazole-4-carbonitrile]: on FGFR4 (setting [1]), the FGFR1/FGFR4 is given as greater than 50, the FGFR2/FGFR4 is on record as greater than 25 and the FGFR3/FGFR4 is greater than 10.

On to `COc1cc(OC)c(F)c(N2Cc3cnc(-c4cc(N)ccc4C)cc3C3(CC3)C2=O)c1F` [Example 1, 6′-(5-amino-2-methylphenyl)-2′-(2,6-difluoro-3,5-dimethoxyphenyl)-1′H-spiro[cyclopropane-1,4′-[2,7]naphthyridin]-3′(2′H)-one], for which, on FGFR4 (setting [1]), the FGFR1/FGFR4 is reported as greater than 25, the FGFR2/FGFR4 is greater than 25 and the FGFR3/FGFR4 was greater than 25. At FGFR4 (setting [2]), the FGFR1/FGFR4 is greater than 25, the FGFR2/FGFR4 is listed as greater than 25 and the FGFR3/FGFR4 is recorded as greater than 50.

As to `COc1cc(OC)c(F)c(N2Cc3cnc(-c4cncc(C#N)c4)cc3C3(CC3)C2=O)c1F` [Example 8, 5-(2′-(2,6-difluoro-3,5-dimethoxyphenyl)-3′-oxo-2′,3′-dihydro-1′H-spiro[cyclopropane-1,4′-[2,7]naphthyridine]-6′-yl)nicotinonitrile], at FGFR4 (setting [1]), the FGFR1/FGFR4 is on record as greater than 50, the FGFR2/FGFR4 is greater than 10 and the FGFR3/FGFR4 is given as greater than 10. In addition, at FGFR4 (setting [2]), the FGFR1/FGFR4 is greater than 50, the FGFR2/FGFR4 was greater than 10 and the FGFR3/FGFR4 is listed as greater than 10. The FGFR1/FGFR3 on FGFR3 enzyme is greater than 5.

In the case of `COc1cc(OC)c(F)c(N2Cc3cnc(-c4cncc(NS(C)(=O)=O)c4)cc3C3(CC3)C2=O)c1F` [Example 15, N-(5-(2′-(2,6-difluoro-3,5-dimethoxyphenyl)-3′-oxo-2′,3′-dihydro-1′H-spiro[cyclopropane-1,4′-[2,7]naphthyridine]-6′-yl)pyridin-3-yl)methanesulfonamide], on FGFR4 (setting [1]), the FGFR1/FGFR4 is listed as greater than 50, the FGFR2/FGFR4 is greater than 25 and the FGFR3/FGFR4 is given as greater than 10. Also, at FGFR4 (setting [2]), the FGFR1/FGFR4 was greater than 50, the FGFR2/FGFR4 is given as greater than 25 and the FGFR3/FGFR4 was greater than 10. The FGFR1/FGFR3 at FGFR3 enzyme was greater than 3.
